Data: ChEMBL document CHEMBL3596110, “Design of glycosyltransferase inhibitors targeting human O-GlcNAc transferase (OGT)” (Medchemcomm, 2014)
The source made the active and inactive calls. The rule behind the calls is not given here.

Legend:
[1] = biological target: T1, UDP-N-acetylglucosamine--peptide N-acetylglucosaminyltransferase 110 kDa subunit (Homo sapiens) (UniProt O15294); assay: Inhibition of OGT in human MCF7 cells assessed as decrease in intracellular O-GlcNAcylated protein level up to 500 uM after 24 to 48 hrs by immunoblot analysis; type: cell-based
T1 sequence (whole entry): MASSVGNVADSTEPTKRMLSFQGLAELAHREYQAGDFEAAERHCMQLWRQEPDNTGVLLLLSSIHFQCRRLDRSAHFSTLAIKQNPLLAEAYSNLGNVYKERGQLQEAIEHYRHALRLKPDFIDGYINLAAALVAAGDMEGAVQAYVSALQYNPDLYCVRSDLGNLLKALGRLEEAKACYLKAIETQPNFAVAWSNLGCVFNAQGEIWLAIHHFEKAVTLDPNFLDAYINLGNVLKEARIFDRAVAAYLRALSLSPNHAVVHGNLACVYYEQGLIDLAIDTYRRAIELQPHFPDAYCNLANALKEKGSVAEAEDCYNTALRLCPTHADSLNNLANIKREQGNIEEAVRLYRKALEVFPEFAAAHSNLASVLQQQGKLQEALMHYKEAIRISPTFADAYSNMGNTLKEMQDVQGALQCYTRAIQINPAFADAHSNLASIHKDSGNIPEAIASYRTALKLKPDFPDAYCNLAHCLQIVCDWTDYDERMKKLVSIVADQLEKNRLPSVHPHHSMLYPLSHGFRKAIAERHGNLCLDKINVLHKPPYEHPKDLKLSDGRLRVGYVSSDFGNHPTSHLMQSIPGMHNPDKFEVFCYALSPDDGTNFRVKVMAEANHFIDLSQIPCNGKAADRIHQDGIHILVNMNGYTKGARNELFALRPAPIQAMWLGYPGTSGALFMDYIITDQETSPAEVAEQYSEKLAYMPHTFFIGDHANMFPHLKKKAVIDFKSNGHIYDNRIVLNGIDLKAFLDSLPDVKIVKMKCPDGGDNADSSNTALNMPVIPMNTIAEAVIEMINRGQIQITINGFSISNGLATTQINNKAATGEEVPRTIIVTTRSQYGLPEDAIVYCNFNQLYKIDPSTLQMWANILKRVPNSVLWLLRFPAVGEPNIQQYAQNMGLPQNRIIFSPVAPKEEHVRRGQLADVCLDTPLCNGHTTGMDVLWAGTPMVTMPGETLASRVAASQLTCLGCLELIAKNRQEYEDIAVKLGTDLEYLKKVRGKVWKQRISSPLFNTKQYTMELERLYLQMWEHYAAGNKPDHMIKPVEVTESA

[2] = biological target: T1, UDP-N-acetylglucosamine--peptide N-acetylglucosaminyltransferase 110 kDa subunit (Homo sapiens); assay: Inhibition of human OGT using [3H]-UDP-GlcNAc as donor and recombinant nup2 as acceptor at 50 uM by liquid scintillation counting analysis
[3] = biological target: T2, UDP-N-acetylglucosamine--peptide N-acetylglucosaminyltransferase 110 kDa subunit (Homo sapiens, UniProt O15294); assay: Inhibition of human OGT using [3H]-UDP-GlcNAc as donor and recombinant nup2 as acceptor by liquid scintillation counting analysis
T2 sequence (O15294 whole entry): T1 sequence (whole entry)

[4] = Permeability across POPC liposomes by out-in method; type: ADME
[5] = Permeability across POPC liposomes by in-out method; type: ADME
[6] = biological target: T2, UDP-N-acetylglucosamine--peptide N-acetylglucosaminyltransferase 110 kDa subunit; assay: Inhibition of human OGT using [3H]-UDP-GlcNAc as donor and recombinant nup2 as acceptor by Dixon plot analysis
[7] = biological target: T1, UDP-N-acetylglucosamine--peptide N-acetylglucosaminyltransferase 110 kDa subunit (Homo sapiens); assay: Inhibition of OGT in human MCF10A cells assessed as decrease in intracellular O-GlcNAcylated protein level up to 500 uM after 24 to 48 hrs by immunoblot analysis; type: cell-based; settings: MCF-10A
[8] = biological target: T1, UDP-N-acetylglucosamine--peptide N-acetylglucosaminyltransferase 110 kDa subunit (Homo sapiens); assay: Inhibition of OGT in human HeLa cells assessed as decrease in intracellular O-GlcNAcylated protein level up to 500 uM after 24 to 48 hrs by immunoblot analysis; type: cell-based

inhibition [1]	inhibition [2] [%]	IC50 [3] [µM]	SMILES	further results
inactive	4.2		O=C(NC[C@H]1O[C@@H](n2ccc(=O)[nH]c2=O)[C@H](O)[C@@H]1O)c1cccc(-c2cn([C@@H]3O[C@H](CO)[C@@H](O)[C@H](O)[C@H]3O)nn2)n1	
inactive	13.3	1600	O=c1ccn([C@@H]2O[C@H](Cn3cc(-c4cccc(-c5cn([C@@H]6O[C@H](CO)[C@@H](O)[C@H](O)[C@H]6O)nn5)n4)nn3)[C@@H](O)[C@H]2O)c(=O)[nH]1	
			O=C(NC[C@H]1O[C@@H](n2ccc(=O)[nH]c2=O)[C@H](O)[C@@H]1O)c1cccc(CO[C@@H]2O[C@H](CO)[C@@H](O)[C@H](O)[C@H]2O)n1	permeability [4]: impermeable; permeability [5]: impermeable
			CC(=O)N[C@@H]1[C@@H](O)[C@H](O)[C@@H](CO)S[C@@H]1OP(=O)(O)OP(=O)(O)OC[C@H]1O[C@@H](n2ccc(=O)[nH]c2=O)[C@H](O)[C@@H]1O	Ki [6]: 8 µM
			CC(=O)N[C@@H]1[C@@H](O)[C@H](O)[C@@H](CO)O[C@@H]1SP(=O)(O)OP(=O)(O)OC[C@H]1O[C@@H](n2ccc(=O)[nH]c2=O)[C@H](O)[C@@H]1O	Ki [6]: 93 µM
inactive	6.7		CC(=O)N[C@@H]1[C@@H](O)[C@H](O)[C@@H](CO)O[C@H]1n1cc(-c2cccc(-c3cn(C[C@H]4O[C@@H](n5ccc(=O)[nH]c5=O)[C@H](O)[C@@H]4O)nn3)n2)nn1	
inactive	9.7		CC(=O)N[C@@H]1[C@@H](O)[C@H](O)[C@@H](CO)O[C@H]1n1cc(-c2cccc(C(=O)NC[C@H]3O[C@@H](n4ccc(=O)[nH]c4=O)[C@H](O)[C@@H]3O)n2)nn1	
inactive	3		CC(=O)N[C@@H]1[C@@H](O)[C@H](O)[C@@H](CO)O[C@H]1NC(=O)c1cccc(Cc2cn(C[C@H]3O[C@@H](n4ccc(=O)[nH]c4=O)[C@H](O)[C@@H]3O)nn2)n1	
inactive	7.6		O=C(NC[C@H]1O[C@@H](n2ccc(=O)[nH]c2=O)[C@H](O)[C@@H]1O)c1cccc(Br)n1	
	15.5	710	O=c1ccn([C@@H]2O[C@H](Cn3cc(-c4cccc(Br)n4)nn3)[C@@H](O)[C@H]2O)c(=O)[nH]1	
		10	O=C(Oc1ccccc1)n1c(=O)oc2ccc(Cl)cc21	

SMILES	inhibition [1]	inhibition [2] [%]	IC50 [3] [µM]	further results
O=C(N[C@@H]1O[C@H](CO)[C@@H](O)[C@H](O)[C@H]1O)c1cccc(Cc2cn(C[C@H]3O[C@@H](n4ccc(=O)[nH]c4=O)[C@H](O)[C@@H]3O)nn2)n1	inactive	18	340	Ki [6]: 420 µM; permeability [4]: impermeable; inhibition [7]: inactive; inhibition [8]: inactive; permeability [5]: impermeable
